For assay [1], the system named is anaerobes in patient duodenum aspirate. The experiment in a line: Culture of patient duodenum aspirate on blood agar. In kind it is cell-based. Conditions: for Blood agar (CFU/mL), Before Rifaximin: With DTT. The source says: (§1) Culture: blood agar and MacConkey aerobically, and blood agar anaerobically. […] Culture: MacConkey aerobically and blood agar anaerobically. […] Culture: MacConkey aerobically and blood agar anaerobically. […] Culture: MacConkey aerobically and blood agar anaerobically. […]

Assay [2] relates to Gram-negative bacteria in patient duodenum aspirate. Put plainly: Culture of patient duodenum aspirate on MacConkey agar aerobically. In kind it is cell-based. Conditions: for MacConkey agar (CFU/mL), Before Rifaximin: With DTT; for MacConkey agar (CFU/mL), Rifaximin treatment: aerobically.
Excerpt: as §1

The mark [3] stands for this setting: Experiment 1, rifaximin dose 0.01 g/mL.

SMILES strings stand for the structures.

The record followed here is patent publication US12642793B2, “Compositions and methods to treat gastrointestinal diseases and disorders” (CEDARS-SINAI MEDICAL CENTER, priority 2019, dated 2026).

On to `O[C@H](CS)[C@H](O)CS` (racemic) [DTT, dithiothreitol], for which the “Blood agar (CFU/mL), Before Rifaximin” value in assay [1] (Experiment 1) is 72000 CFU/mL; in assay [1] (Experiment 2), “too high”; in assay [1] (Experiment 3), 60000 CFU/mL; in assay [1] (Experiment 4), 1600000 CFU/mL. Also, the “MacConkey agar (CFU/mL), Before Rifaximin” value in assay [2] (Experiment 1) is recorded as 4800 CFU/mL; in assay [2] (Experiment 2), 338000 CFU/mL; in assay [2] (Experiment 3), 20 CFU/mL; in assay [2] (Experiment 4), 0 CFU/mL.

On to `CO[C@H]1/C=C/O[C@@]2(C)Oc3c(C)c(O)c4c(O)c(c5c(nc6cc(C)ccn65)c4c3C2=O)NC(=O)/C(C)=C\C=C\[C@H](C)[C@H](O)[C@@H](C)[C@@H](O)[C@@H](C)[C@H](OC(C)=O)[C@@H]1C` [Rifaximin, rifaximin], for which the “Blood agar (CFU/mL), Rifaximin treatment” value in assay [1] (setting [3]) is listed as 6000 CFU/mL; in assay [1] (Experiment 2, rifaximin dose 0.1 g/mL, anaerobically), “too high”; in assay [1] (Experiment 3, rifaximin dose 0.01 g/mL, anaerobically) it was 800 CFU/mL; in assay [1] (Experiment 4, rifaximin dose 0.1 g/mL, anaerobically), 16000 CFU/mL. Further, the “MacConkey agar (CFU/mL), Rifaximin treatment” value in assay [2] (setting [3]) amounted to 4000 CFU/mL; in assay [2] (Experiment 2, rifaximin dose 0.1 g/mL) it was 343000 CFU/mL; in assay [2] (Experiment 3, rifaximin dose 0.01 g/mL), 40 CFU/mL; in assay [2] (Experiment 4, rifaximin dose 0.1 g/mL), 0 CFU/mL.
